Patent publication US12698342B2, “Therapy for drug-resistant cancer by administration of anti-HER2 antibody/drug conjugate” (DAIICHI SANKYO COMPANY, LIMITED, priority 2016, dated 2026)

Tests used:
topoisomerase I = molecular target: T1, topoisomerase I (Homo sapiens, UniProt P11387); details: cited from earlier work
T1 sequence (P11387 1-765): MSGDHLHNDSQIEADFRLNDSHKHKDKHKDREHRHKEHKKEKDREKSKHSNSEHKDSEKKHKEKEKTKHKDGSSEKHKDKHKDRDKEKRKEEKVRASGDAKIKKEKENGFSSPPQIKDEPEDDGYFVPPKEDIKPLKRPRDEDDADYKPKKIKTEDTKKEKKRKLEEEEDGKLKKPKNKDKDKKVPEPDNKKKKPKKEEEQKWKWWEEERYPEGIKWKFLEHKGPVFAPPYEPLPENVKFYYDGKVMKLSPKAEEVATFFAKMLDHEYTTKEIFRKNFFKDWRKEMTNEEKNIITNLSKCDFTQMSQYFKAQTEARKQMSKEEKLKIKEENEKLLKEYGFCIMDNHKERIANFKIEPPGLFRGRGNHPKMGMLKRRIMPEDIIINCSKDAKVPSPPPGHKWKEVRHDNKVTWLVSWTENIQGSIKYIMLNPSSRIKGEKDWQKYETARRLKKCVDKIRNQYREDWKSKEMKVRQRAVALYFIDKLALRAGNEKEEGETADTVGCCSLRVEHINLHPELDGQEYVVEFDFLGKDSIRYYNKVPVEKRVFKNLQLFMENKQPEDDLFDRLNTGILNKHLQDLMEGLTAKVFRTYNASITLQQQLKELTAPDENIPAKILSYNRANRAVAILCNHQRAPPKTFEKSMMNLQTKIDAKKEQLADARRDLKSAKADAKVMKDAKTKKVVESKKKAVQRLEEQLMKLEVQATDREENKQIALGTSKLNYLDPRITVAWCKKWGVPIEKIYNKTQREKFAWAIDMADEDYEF

[1] = tested on: HER2-positive human breast cancer ST1360B/TDR; details: mouse, in vivo
Experimental: (§1) Mouse: 6- to 12-week-old female immunodeficient Crl:Nu(Ncr)-Foxn1^Nu mice (Charles River Laboratories Japan, Inc.) were subjected to the experiment.
(§2) Assay and calculation expression: The major axis and minor axis of tumor were measured twice a week by using an electronic digital caliper, and the tumor volume (mm^3) was calculated. The calculation expression is as shown below. Tumor volume (mm^3)=0.52×Major axis (mm)×[Minor axis ([…])]^2
(§3) Tumor excised from a patient with HER2-positive breast cancer that acquired resistance after treatment with T-DM1 was maintained at several passages by transplantation to female immunodeficient mice. […] ST1616B/TDR is tumor derived from a patient who received T-DM1 by continuous administration for 13 months, and ST1360B/TDR is a tumor derived from a patient who received T-DM1 by continuous administration for 3 months.
(§4) A tumor section of the solid tumor was subcutaneously transplanted to the side of the body of each female immunodeficient mouse, and the mice were randomly grouped when the tumor volume reached about 200 mm^3.

[2] = tested on: HER2-positive human breast cancer ST1616B/TDR; details: mouse, in vivo
Experimental: as §1, §2, §3, §4

[3] = tested on: Breast cancer or gastric adenocarcinoma/esophagogastric junction adenocarcinoma; details: human, in vivo
Excerpt: Open-label, Phase 1 dose escalation study.
Part 1 study: Dose escalation study (conducted in Japan)
Breast cancer or gastric adenocarcinoma/esophagogastric junction adenocarcinoma
Objective response rate (ORR; complete response (CR)+partial response (PR)).
Disease control rate (DCR; CR+PR+stable disease (SD)).

For `CC[C@@]1(O)C(=O)OCc2c1cc1n(c2=O)Cc2c-1nc1cc(F)c(C)c3c1c2[C@@H](NC(=O)CO)CC3` [Compound 1], the “topoisomerase I inhibitory effect” value (topoisomerase I; Ogitani Y. et al., Clinical Cancer Research, 2016) is given as “confirmed to have a topoisomerase I inhibitory effect”.
In the case of `CC[C@@]1(O)C(=O)OCc2c1cc1n(c2=O)Cc2c-1nc1cc(F)c(C)c3c1c2[C@@H](N)CC3` [exatecan, (1S,9S)-1-amino-9-ethyl-5-fluoro-1,2,3,9,12,15-hexahydro-9-hydroxy-4-methyl-10H,13H-benzo[de]pyrano[3′,4′:6,7]indolizino[1,2-b]quinolin-10,13-dione], the “inhibitory activity on topoisomerase I” value (topoisomerase I; compared with SN-38 and topotecan) is given as “higher than SN-38”.
In the case of T-DM1, the “growth of the tumor (tumor volume)” value [1] is reported as “did not inhibit the growth”, the “growth of the tumor (tumor volume)” value [2] is reported as “did not inhibit the growth” and the DCR [3] is reported as 64%. It also gave an ORR [3] of 18%.
